Patent publication US20250346585A1 (Alexion Pharmaceuticals, Inc., priority 2022, published 2025)
Where two headings read alike, the source gives them in different places.

Target: Human complement C1s enzyme (Homo sapiens (Human), UniProt P09871)
Assay: Human C1s enzyme assay
Assay type: biochemical
Details: read-out: IC50 (Stars)
In short: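 IC50 derived by nonlinear regression of rate versus concentration, with rate taken from A405 kinetics (30 s intervals, 30 min) after adding 100 μM each Z-L-Lys-SBzl and DTNB. C1s from human serum, 1.16 nM, exposed to compound for 5 min at RT beforehand; buffer 50 mM Tris, 1 M NaCl, pH 7.5.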

[1] = Human C1s enzyme assay of Example 3
[2] = Human complement C1s enzyme 1.16 nM, substrate Z-L-Lys-SBzl 100 μM, assay of Example 3

Sequence of Human complement C1s enzyme (P09871 438-688 limits assumed): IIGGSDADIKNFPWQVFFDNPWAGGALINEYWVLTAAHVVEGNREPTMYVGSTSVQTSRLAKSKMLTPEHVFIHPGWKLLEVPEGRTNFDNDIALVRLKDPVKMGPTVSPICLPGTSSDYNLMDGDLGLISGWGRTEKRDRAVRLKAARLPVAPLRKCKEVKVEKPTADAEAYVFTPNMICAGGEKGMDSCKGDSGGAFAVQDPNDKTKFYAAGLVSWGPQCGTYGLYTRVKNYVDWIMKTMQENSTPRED
Sequence of Human complement C1s enzyme (P09871 16-437 partner limits assumed): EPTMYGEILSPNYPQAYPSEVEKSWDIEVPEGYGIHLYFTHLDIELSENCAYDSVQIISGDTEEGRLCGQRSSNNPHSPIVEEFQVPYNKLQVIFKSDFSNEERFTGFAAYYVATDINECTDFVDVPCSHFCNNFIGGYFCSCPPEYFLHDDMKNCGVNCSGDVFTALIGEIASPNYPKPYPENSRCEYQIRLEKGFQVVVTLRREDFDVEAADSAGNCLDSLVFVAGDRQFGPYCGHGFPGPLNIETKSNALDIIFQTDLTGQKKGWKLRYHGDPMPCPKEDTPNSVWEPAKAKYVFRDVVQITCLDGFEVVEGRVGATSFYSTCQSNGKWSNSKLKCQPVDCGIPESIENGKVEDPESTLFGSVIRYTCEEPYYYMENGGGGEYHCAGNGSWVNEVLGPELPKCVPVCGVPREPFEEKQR

| SMILES | IC50 [1] [nM] | IC50 [2] [nM] |
| --- | --- | --- |
| Cc1ccc2c(c1)C(F)(F)c1ccc(C(=O)NCC(=O)N3CC4(C[C@H]3C(=O)N[C@H](C)c3cc(C(=N)N)cs3)OCCO4)cc1-2 [Compound 190, (S)—N—((R)-1-(4-carbamimidoylthiophen-2-yl)ethyl)-7-((9,9-difluoro-7-methyl-9H-fluorene-3-carbonyl)glycyl)-1,4-dioxa-7-azaspiro[4.4]nonane-8-carboxamide] | < 100 | – |
| CC(C)OC(=O)/N=C(/N)c1csc([C@@H](C)NC(=O)[C@@H]2CC3(CN2C(=O)CNC(=O)c2ccc4c(c2)-c2ccccc2C4(F)F)OCCO3)c1 [Compound 134, isopropyl ((E)-amino(5-((R)-1-((S)-7-((9,9-difluoro-9H-fluorene-3-carbonyl)glycyl)-1,4-dioxa-7-azaspiro[4.4]nonane-8-carboxamido)ethyl)thiophen-3-yl)methylene)carbamate] | < 100 | – |
| C[C@@H](NC(=O)[C@@H]1C[C@@H](c2ccncc2)CN1C(=O)CNC(=O)c1ccc2c(c1)-c1ccccc1C2(F)F)c1cc(C(=N)N)cs1 [Compound 377, (2S,4S)—N—((R)-1-(4-carbamimidoylthiophen-2-yl)ethyl)-1-((9,9-difluoro-9H-fluorene-3-carbonyl)glycyl)-4-(pyridin-4-yl)pyrrolidine-2-carboxamide] | – | < 100 |
| CC1(C)c2ccccc2-c2cc(C(=O)NCC(=O)N3C[C@H](S(C)(=O)=O)C[C@H]3C(=O)N[C@H](CO)c3cc(C(=N)N)cs3)ccc21 [Compound 380, (2S,4R)—N—((R)-1-(4-carbamimidoylthiophen-2-yl)-2-hydroxyethyl)-1-((9,9-dimethyl-9H-fluorene-3-carbonyl)glycyl)-4-(methylsulfonyl) pyrrolidine-2-carboxamide] | – | < 100 |
| C[C@@H](NC(=O)[C@@H]1CC2(CN1C(=O)CNC(=O)c1ncc(-c3ccccc3)cc1F)OCCO2)c1cc(C(=N)N)cs1 [Compound 347, (S)—N—((R)-1-(4-carbamimidoylthiophen-2-yl)ethyl)-7-((3-fluoro-5-phenylpicolinoyl)glycyl)-1,4-dioxa-7-azaspiro[4.4]nonane-8-carboxamide] | – | < 100 |
| C[C@@H](NC(=O)c1ccc(-c2ccc(F)cc2F)cc1)C(=O)N1CC2(C[C@H]1C(=O)NCc1cc(C(=N)N)cs1)OCCO2 [Compound 301, (S)—N-((4-carbamimidoylthiophen-2-yl)methyl)-7-((2′,4′-difluoro-[1,1′-biphenyl]-4-carbonyl)-D-alanyl)-1,4-dioxa-7-azaspiro[4.4]nonane-8-carboxamide] | – | < 100 |
| N=C(N)c1csc(CNC(=O)[C@@H]2CC3(CN2C(=O)CN2Cc4ccc(-c5ccc(F)cc5F)cc4C2=O)OCCO3)c1 [Compound 229, (S)—N-((4-carbamimidoylthiophen-2-yl)methyl)-7-(2-(6-(2,4-difluorophenyl)-1-oxoisoindolin-2-yl)acetyl)-1,4-dioxa-7-azaspiro[4.4]nonane-8-carboxamide] | – | < 100 |
| N=C(N)c1csc(CNC(=O)[C@@H]2CC3(CN2C(=O)CN2Cc4cc(-c5ccccc5)ccc4C2=O)OCCO3)c1 [Compound 231, (S)—N-((4-carbamimidoylthiophen-2-yl)methyl)-7-(2-(1-oxo-5-phenylisoindolin-2-yl)acetyl)-1,4-dioxa-7-azaspiro[4.4]nonane-8-carboxamide] | – | < 100 |
| Cc1ccc(-c2ccc(C(=O)NCC(=O)N3CC4(C[C@H]3C(=O)N[C@H](C)c3cc(C(=N)N)cs3)OCCO4)cc2)cc1 [Compound 126, (S)—N—((R)-1-(4-carbamimidoylthiophen-2-yl)ethyl)-7-((4′-methyl-[1,1′-biphenyl]-4-carbonyl)glycyl)-1,4-dioxa-7-azaspiro[4.4]nonane-8-carboxamide] | < 100 | – |
| COC[C@@]1(F)C[C@@H](C(=O)N[C@H](C)c2cc(C(=N)N)cs2)N(C(=O)CNC(=O)c2ccc3c(c2)-c2ccccc2C3(F)F)C1 [Compound 20, (2S,4R)—N—((R)-1-(4-carbamimidoylthiophen-2-yl)ethyl)-1-((9,9-difluoro-9H-fluorene-3-carbonyl)glycyl)-4-fluoro-4-(methoxymethyl)pyrrolidine-2-carboxamide] | < 100 | – |

Second part, the molecule after the results:

| IC50 [1] [nM] | IC50 [2] [nM] | SMILES |
| --- | --- | --- |
| < 100 | – | Cc1ccc(-c2cnc(C(=O)NCC(=O)N3CC4(C[C@H]3C(=O)NCc3cc(C(=N)N)cs3)OCCO4)c(F)c2)cc1 [Compound 102, (S)—N-((4-carbamimidoylthiophen-2-yl)methyl)-7-((3-fluoro-5-(p-tolyl)picolinoyl)glycyl)-1,4-dioxa-7-azaspiro[4.4]nonane-8-carboxamide] |
| < 100 | – | Nc1cnc(-c2csc(CNC(=O)[C@@H]3CC4(CN3C(=O)CNC(=O)c3ccc(Oc5ccc(F)cc5)cc3)OCCO4)c2)s1 [Compound 185, (S)—N-((4-(5-aminothiazol-2-yl)thiophen-2-yl)methyl)-7-((4-(4-fluorophenoxy)benzoyl)glycyl)-1,4-dioxa-7-azaspiro[4.4]nonane-8-carboxamide] |
| > 1000 | – | O=C(NCC(=O)N1CC2(C[C@H]1C(=O)NCc1cc(Br)cs1)OCCO2)c1ccc(Oc2ccc(F)cc2)cc1 [Compound 75, (S)—N-((4-bromothiophen-2-yl)methyl)-7-((4-(4-fluorophenoxy)benzoyl)glycyl)-1,4-dioxa-7-azaspiro[4.4]nonane-8-carboxamide] |
| – | < 100 | Cc1ccc(-c2ccc(C(=O)NCC(=O)N3CC4(C[C@H]3C(=O)NCc3cc(C(=N)N)cs3)OCCO4)cc2)c(C)c1 [Compound 257, (S)—N-((4-carbamimidoylthiophen-2-yl)methyl)-7-((2′,4′-dimethyl-[1,1′-biphenyl]-4-carbonyl)glycyl)-1,4-dioxa-7-azaspiro[4.4]nonane-8-carboxamide] |
| > 1000 | – | Nc1ncccc1-c1csc(CNC(=O)[C@@H]2CC3(CN2C(=O)CNC(=O)c2ccc(Oc4ccc(F)cc4)cc2)OCCO3)c1 [Compound 122, (S)—N-((4-(2-aminopyridin-3-yl)thiophen-2-yl)methyl)-7-((4-(4-fluorophenoxy)benzoyl)glycyl)-1,4-dioxa-7-azaspiro[4.4]nonane-8-carboxamide] |
